Test results reported in patent US10584115B2, “Substituted pyridine and pyrazine BMI-1 inhibitors” (PTC Therapeutics, Inc., priority 2013, dated 2020).
Like-named read-outs stand apart in the source and are kept apart here.

Test system: Bmi-1 protein
Assay: Sandwich ELISA Assay (Bmi-1 protein level in HT-1080 cells after compound treatment)
Type: cell-based
Outline: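 HT-1080 cells exposed to compounds for 40–48 h at 37 °C (0.5% DMSO final), then lysed. Bmi-1 in lysates measured by sandwich ELISA (mouse monoclonal capture, rabbit anti-Bmi-1 detection, HRP anti-rabbit, TMB), read at OD450 with OD570 reference against a recombinant Bmi-1 standard curve (0–8000 pg/mL).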

[1] = Table 1, Bmi-1 sandwich ELISA, read-out: ELISA EC50 value for Bmi-1 protein
[2] = read-out: ELISA EC50 value for Bmi-1 protein, Table 1, Bmi-1 sandwich ELISA

| SMILES | EC50 [1] [nM] | EC50 [2] [nM] |
| --- | --- | --- |
| Cc1nc2c(F)cccc2n1-c1cc(C#N)cc(Nc2ccc(C(F)(F)F)cc2)n1 [Cpd 435, 2-(4-fluoro-2-methyl-1H-benzimidazol-1-yl)-6-{[4-(trifluoromethyl)phenyl]amino}pyridine-4-carbonitrile] | 10 to 100 | – |
| CC(N)c1ccc(Nc2cc(C#N)cc(-c3c(C(F)(F)F)nc4ccccn34)n2)cc1 (stereo not shown) [Cpd 257, 2-(4-(1-aminoethyl)phenylamino)-6-(2-(trifluoromethyl)imidazo[1,2-a]pyridin-3-yl)isonicotinonitrile] | 100 to 3000 | – |
| OCc1nc2ccccn2c1-c1cncc(Nc2ccc(C(F)(F)F)cc2)n1 [compound 151, [3-(6-{[4-(trifluoromethyl)phenyl]amino}pyrazin-2-yl)imidazo[1,2-a]pyridin-2-yl]methanol] | 1 to 10 | – |
| OCc1cc(Nc2ccc(C(F)(F)F)cc2)nc(-c2c(C(F)(F)F)nc3ccccn23)c1 [Cpd 219, (2-[2-(trifluoromethyl)imidazo[1,2-a]pyridin-3-yl]-6-{[4-(trifluoromethyl)phenyl]amino}pyridin-4-yl)methanol] | 10 to 100 | – |
| CCc1nn2ccccc2c1-c1cncc(Nc2cccc(OC)c2)n1 [compound 640, 6-(2-ethylpyrazolo[1,5-a]pyridin-3-yl)-N-(3-methoxyphenyl)pyrazin-2-amine] | 10 to 100 | – |
| Fc1ccc2nc(C(F)(F)F)c(-c3cncc(Nc4ccccc4)n3)n2c1 [compound 667, 6-[6-fluoro-2-(trifluoromethyl)imidazo[1,2-a]pyridin-3-yl]-N-phenylpyrazin-2-amine] | 100 to 3000 | – |
| COc1ccc2nc(C)c(-c3cncc(Nc4ccc(C(F)(F)F)cc4)n3)n2c1 [compound 376, 6-(6-methoxy-2-methylimidazo[1,2-a]pyridin-3-yl)-N-[4-(trifluoromethyl)phenyl]pyrazin-2-amine] | 10 to 100 | – |
| COCCNc1cc(Nc2ccc(C(F)(F)F)cc2)nc(-c2c(C(F)(F)F)nc3ccccn23)c1 [compound 161, N^4-(2-methoxyethyl)-6-[2-(trifluoromethyl)imidazo[1,2-a]pyridin-3-yl]-N^2-[4-(trifluoromethyl)phenyl]pyridine-2,4-diamine] | 10 to 100 | – |
| CCc1nn2ccccc2c1-c1cncc(Nc2ccc(C#N)cc2)n1 [compound 641, 4-{[6-(2-ethylpyrazolo[1,5-a]pyridin-3-yl)pyrazin-2-yl]amino}benzonitrile] | 10 to 100 | – |
| Cc1nc2ccc(F)cc2n1-c1cncc(Nc2ccc(Cl)nc2)n1 [compound 427, N-(6-chloropyridin-3-yl)-6-(6-fluoro-2-methyl-1H-benzimidazol-1-yl)pyrazin-2-amine] | 10 to 100 | – |
| COc1ccc(Nc2cc(-n3c(C)ccc3C)cc(-n3c(C)nc4ccccc43)n2)cc1 [compound 577, 4-(2,5-dimethyl-1H-pyrrol-1-yl)-N-(4-methoxyphenyl)-6-(2-methyl-1H-benzimidazol-1-yl)pyridin-2-amine] | 100 to 3000 | – |
| Nc1cc(Nc2ccc(C(F)(F)F)cc2)nc(-c2c(C(F)(F)F)nc3ccc(F)cn23)c1 [compound 287, 6-[6-fluoro-2-(trifluoromethyl)imidazo[1,2-a]pyridin-3-yl]-N^2-[4-(trifluoromethyl)phenyl]pyridine-2,4-diamine] | – | 10 to 100 |
| CNc1ccc2nc(C)n(-c3cncc(Nc4ccc(OC(F)(F)F)cc4)n3)c2c1 [compound 225, N,2-dimethyl-1-(6-{[4-(trifluoromethoxy)phenyl]amino}pyrazin-2-yl)-1H-benzimidazol-6-amine] | 100 to 3000 | – |
| FC(F)(F)Oc1ccc(Nc2cccc(-c3c(C(F)(F)F)nc4cnccn34)n2)cc1 [compound 195, N-[4-(trifluoromethoxy)phenyl]-6-[2-(trifluoromethyl)imidazo[1,2-a]pyrazin-3-yl]pyridin-2-amine] | 100 to 3000 | – |
| Cc1nc2ccccc2n1-c1cncc(Nc2ccc(C(F)F)c(F)c2)n1 [compound 508, N-[4-(difluoromethyl)-3-fluorophenyl]-6-(2-methyl-1H-benzimidazol-1-yl)pyrazin-2-amine] | 10 to 100 | – |
| Cc1nc2ccccc2n1-c1cc(C#N)cc(Nc2ccc(C(F)(F)F)cc2)n1 [Cpd 132, 2-(2-methyl-1H-benzimidazol-1-yl)-6-{[4-(trifluoromethyl)phenyl]amino}pyridine-4-carbonitrile] | – | 10 to 100 |
| COc1ccc(Nc2cccc(-n3c(C(F)(F)F)nc4ccccc43)n2)cc1 [Cpd 33, N-(4-methoxyphenyl)-6-[2-(trifluoromethyl)-1H-benzimidazol-1-yl]pyridin-2-amine] | – | 10 to 100 |
| Fc1cc(Nc2cncc(-c3c(C(F)(F)F)nc4ccccn34)n2)ccc1OC(F)F [compound 323, N-[4-(difluoromethoxy)-3-fluorophenyl]-6-[2(trifluoromethyl)imidazo[1,2-a]pyridin-3-yl]pyrazin-2-amine] | 1 to 10 | – |
| FC(F)(F)c1ccc(Nc2cncc(-c3cnc4ccccn34)n2)cc1 [compound 235, 6-(imidazo[1,2-a]pyridin-3-yl)-N-[4-(trifluoromethyl)phenyl]pyrazin-2-amine] | – | 100 to 3000 |

| SMILES | EC50 [1] [nM] | EC50 [2] [nM] |
| --- | --- | --- |
| Cc1nc2cc(F)c(F)cc2n1-c1cncc(Nc2ccc3c(c2)OC(F)(F)O3)n1 [compound 579, N-(2,2-difluoro-1,3-benzodioxol-5-yl)-6-(5,6-difluoro-2-methyl-1H-benzimidazol-1-yl)pyrazin-2-amine] | 100 to 3000 | – |
| COc1ccc(Nc2cccc(-n3c(C)cc4ccccc43)n2)cc1 [compound 174, N-(4-methoxyphenyl)-6-(2-methyl-1H-indol-1-yl)pyridin-2-amine] | 100 to 3000 | – |
| Cc1n[nH]c(C)c1-c1cncc(Nc2ccc(C(F)(F)F)cc2)n1 [compound 226, 6-(3,5-dimethyl-1H-pyrazol-4-yl)-N-[4-(trifluoromethyl)phenyl]pyrazin-2-amine] | 100 to 3000 | – |
| CCc1nc2ncc(Cl)cc2n1-c1cc(C#N)cc(Nc2ccc(OC(F)F)cc2)n1 [compound 451, 2-(6-chloro-2-ethyl-1H-imidazo[4,5-b]pyridin-1-yl)-6-{[4-(difluoromethoxy)phenyl]amino}pyridine-4-carbonitrile] | 1 to 10 | – |
| COc1nc2ccccc2n1-c1cncc(Nc2ccc(C(F)(F)F)cc2)n1 [compound 77, 6-(2-methoxy-1H-benzimidazol-1-yl)-N-[4-(trifluoromethyl)phenyl]pyrazin-2-amine] | 10 to 100 | – |
| Fc1cnc2nc(C3CC3)n(-c3cncc(Nc4ccc(C(F)(F)F)cc4)n3)c2c1 [compound 293, 6-(2-cyclopropyl-6-fluoro-1H-imidazo[4,5-b]pyridin-1-yl)-N-[4-(trifluoromethyl)phenyl]pyrazin-2-amine] | 10 to 100 | – |
| Cc1nc2c(F)cc(F)cc2n1-c1cc(C#N)cc(Nc2ccc(C(F)(F)F)cc2)n1 [Cpd 447, 2-(4,6-difluoro-2-methyl-1H-benzimidazol-1-yl)-6-{[4-(trifluoromethyl)phenyl]amino}pyridine-4-carbonitrile] | 10 to 100 | – |
| Fc1ccc2nc(C(F)(F)F)c(-c3cncc(Nc4ccc(C(F)(F)F)cc4)n3)n2c1 [Cpd 58, 6-[6-fluoro-2-(trifluoromethyl)imidazo[1,2-a]pyridin-3-yl]-N-[4-(trifluoromethyl)phenyl]pyrazin-2-amine] | 1 to 10 | – |
| Cc1nc2ccc(N)cc2n1-c1cncc(Nc2ccc(C(F)(F)F)cc2)n1 [compound 285, 2-methyl-1-(6-{[4-(trifluoromethyl)phenyl]amino}pyrazin-2-yl)-1H-benzimidazol-6-amine] | 10 to 100 | – |
| COCCNc1cc(Nc2ccc(OC(F)F)cc2)nc(-c2c(C(F)(F)F)nc3ccccn23)c1 [compound 172, N^2-[4-(difluoromethoxy)phenyl]-N^4-(2-methoxyethyl)-6-[2-(trifluoromethyl)imidazo[1,2-a]pyridin-3-yl]pyridine-2,4-diamine] | 10 to 100 | – |
| Cc1nc2ncccc2n1-c1cc(N)cc(Nc2ccc(C(F)(F)F)cc2)n1 [compound 292, 6-(2-methyl-1H-imidazo[4,5-b]pyridin-1-yl)-N^2-[4-(trifluoromethyl)phenyl]pyridine-2,4-diamine] | 1 to 10 | – |
| Cc1nc2c(F)cc(F)cc2n1-c1cncc(Nc2ccc(C(F)(F)F)cc2)n1 [compound 417, 6-(4,6-difluoro-2-methyl-1H-benzimidazol-1-yl)-N-[4-(trifluoromethyl)phenyl]pyrazin-2-amine] | 10 to 100 | – |
| Cc1nc2ccccc2n1-c1cncc(Nc2ccc(OC(F)F)cc2)n1 [compound 21, N-[4-(difluoromethoxy)phenyl]-6-(2-methyl-1H-benzimidazol-1-yl)pyrazin-2-amine] | 1 to 10 | – |
| Cc1nc2cc(F)c(F)cc2n1-c1cncc(Nc2ccc(OC(F)F)c(F)c2)n1 [compound 319, N-[4-(difluoromethoxy)-3-fluorophenyl]-6-(5,6-difluoro-2-methyl-1H-benzimidazol-1-yl)pyrazin-2-amine] | 10 to 100 | – |
| Cc1nc2ccccc2n1-c1cc(C#N)cc(Nc2ccc(OC(F)(F)F)cc2)n1 [Cpd 136, 2-(2-methyl-1H-benzimidazol-1-yl)-6-{[4-(trifluoromethoxy)phenyl]amino}pyridine-4-carbonitrile] | 10 to 100 | – |
| Cc1nc2ncc(Nc3ccc(OC(F)F)cc3)cc2n1-c1cncc(Nc2ccc(OC(F)F)cc2)n1 [compound 547, N-[4-(difluoromethoxy)phenyl]-1-(6-{[4-(difluoromethoxy)phenyl]amino}pyrazin-2-yl)-2-methyl-1H-imidazo[4,5-b]pyridin-6-amine] | 100 to 3000 | – |
| COc1ccc(Nc2cncc(-c3c(C(F)(F)F)nc4sccn34)n2)cc1 [compound 119, N-(4-methoxyphenyl)-6-[6-(trifluoromethyl)imidazo[2,1-b][1,3]thiazol-5-yl]pyrazin-2-amine] | < 1 | – |
| COc1ccc2nc(C)c(-c3cc(C#N)cc(Nc4ccc(OC(F)F)cc4)n3)n2c1 [compound 677, 2-{[4-(difluoromethoxy)phenyl]amino}-6-(6-methoxy-2-methylimidazo[1,2-a]pyridin-3-yl)pyridine-4-carbonitrile] | 100 to 3000 | – |
